Laboratory results taken from patent US8524911B2, “3-arylamino pyridine derivatives” (Merck Serono SA, priority 2004, dated 2013).

Key:
[1] = Microsomal stability assay, HLM; format: in vitro ADME; conditions: pooled human liver microsomes, pH 7.4; 3 μM compound, 0.5 mg/ml human liver microsomes, 37° C., 2 mM NADPH; read-out: HLM t1/2
Experimental: (§1) Assay 3: Microsomal Stability Assay
(§2) Compounds were tested on their stability in human, rat and mouse liver microsomal preparations (HLM, RLM and MLM respectively). At a final concentration of 3 μM, compounds were incubated at 37° C. with 0.5 mg/ml human, rat or mouse liver microsomes in a buffer containing 50 mM phosphate, pH 7.4 and 2 mM NADPH. Pooled human liver microsomes or pooled male rat liver microsomes (Sprague Dawley) were obtained from NatuTec (Frankfurt, Germany). Incubations without NADPH served as negative controls. Reactions were stopped after 0, 15, 30, 45 or 60 min by the addition of acetonitrile and microsomes were pelleted by centrifugation (10 min at 6200×g). Supernatants were analyzed by HPLC regarding the concentration of mother compound. Finally, the half life of compounds in the regarding microsomal preparation was calculated.

[2] = Microsomal stability assay, RLM; format: in vitro ADME; conditions: male, Sprague Dawley, pooled rat liver microsomes, pH 7.4; 3 μM compound, 0.5 mg/ml rat liver microsomes, 37° C., 2 mM NADPH; read-out: RLM t1/2
Experimental: as §1, §2

human MEK1 = human MEK1 (Homo sapiens, UniProt Q02750); test: MEK-1 Enzyme Assay (LANCE-HTRF); format: biochemical; conditions: 100 nM MEK1, 15 μM ATP, 300 nM ERK2, two hours; read-out: MEK inhibition
Outline: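 TR-FRET readout of MEK1-catalysed ERK1 phosphorylation; after a 2 h reaction, Eu-anti-PY20 (5 nM) and anti-GST-APC (50 nM) were added in buffer with 50 mM EDTA and 0.05% BSA, then incubated 1 h in the dark.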

[3] = test system: human melanoma A375 cells; test: Tumor cell proliferation assay (ATP Lite), A375; format: cell-based; conditions: A-375, 96 h, 4 days
Outline: (§3)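 Cells seeded at 1500/well (C26) or 2000/well (A375, MiaPaCa-2) grew overnight, then were exposed to serially diluted compounds (0.25% DMSO final) for 4 days in serum-containing DMEM or RPMI. Viability read by ATPlite luminescence; IC50 is the concentration giving 50% cell death.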

human melanoma cell MeI5 = test: Tumor cell proliferation assay (ATP Lite), MeI5; format: cell-based; conditions: MeI5 cells
Experimental: Assay 2: Tumor Cell Proliferation Assays (ATP Lite)
Murine colon C26, human melanoma A375 and MeI5 or human pancreatic MiaPaCa-2 cells were plated in 96 well Corning white plates (1500 cells/well for C26, and 2000 cells/well for A375, and MiaPaCa-2) and cultured overnight at 37° C. in 5% CO2. Inhibitors were serially diluted in 100% DMSO and subsequently added to cells to reach a final concentration of 0.25% DMSO. The cells were incubated for 4 days in the presence of test compounds in cell growth media (DMEM with 10% fetal bovine serum, 2 mM glutamine for C26, and MiaPaCa-2, and RPMI with 10% fetal bovine serum, 2 mM glutamine for A375). Cell proliferation was quantitated using the ATP lite cell proliferation kit (Packard). Columns 4-6 show the concentration of compounds required to induce 50% cell death (IC50 in μM) of […]. With “+” meaning 3 μM<IC50≦10 μM and “++” IC50≦3 μM and “n.d.” means not determined. Few compounds were also tested on human melanoma cell MeI5.

Murine colon C26 cells = test: Tumor cell proliferation assay (ATP Lite), C26; format: cell-based; conditions: Mus musculus, 96 h, 4 days
Outline: as §3

Tumors = conditions: patients; cited from earlier work
[4] = cited from earlier work
[5] = Microsomal stability assay, MLM; format: in vitro ADME; conditions: pH 7.4; 3 μM compound, 0.5 mg/ml mouse liver microsomes, 37° C., 2 mM NADPH; read-out: MLM t1/2
Experimental: as §1, §2

Caco-2 cells = test: Caco-2 permeability assay; format: in vitro ADME; conditions: 10 μM, pH 7.4, 120 minutes; for Caco A-B: Papp apical to basolateral; for Caco B-A: Papp basolateral to apical
Experimental: Assay 4: Caco-2 Permeability Assay
Caco-2 cells obtained from the ATCC at passage number 27 are used. Cells (passage number 40-60) were seeded on to Millipore Multiscreen Caco-2 plates or Falcon HTS inserts at 1×10^5 cells/cm2. Cells were cultured for 20 days in DMEM and media was changed every two or three days. On day 20 the permeability study was performed.
Permeability was studied by applying compound to the apical surface of cell monolayers and measuring compound permeation into the basolateral compartment. The experiment was also performed in the reverse direction (B-A) to investigate active transport. Hanks Balanced Salt Solution (HBSS) pH 7.4 buffer with 25 mM HEPES and 10 mM glucose at 37° C. was used as the medium in permeability studies. Incubations were carried out in an atmosphere of 5% CO2 with a relative humidity of 95%.
The monolayers were prepared by rinsing both basolateral and apical surfaces twice with HBSS at 37° C. Cells were then incubated with HBSS in both apical and basolateral compartments for 40 minutes to stabilize physiological parameters.
HBSS was then removed from the apical compartment and replaced with test compound dosing solutions. The solutions were made by diluting 10 mM DMSO concentrates with HBSS to give a final test compound concentration of 10 μM (final DMSO concentration adjusted to 1%). The fluorescent integrity marker lucifer yellow was also included in the dosing solution. Analytical standards were made from dosing solutions. Test compound permeability was assessed in duplicate. On each plate compounds of known permeability characteristics were run as controls.
The apical compartment inserts were then placed into ‘companion’ plates containing fresh HBSS. For basolateral to apical (B-A) experiments the experiment was initiated by replacing buffer in the inserts then placing them in companion plates containing dosing solutions. At 120 minutes the companion plate was removed and apical and basolateral samples diluted for analysis by LC-MS/MS (the donor compartment was also sampled to permit determination of starting concentration after non-specific binding has occurred).
The integrity of the monolayers throughout the experiment is checked by monitoring lucifer yellow permeation using fluorimetric analysis. Lucifer yellow permeation was low if monolayers have not been damaged. Test and control compounds were quantified by LC-MS/MS cassette analysis using a 5-point calibration with appropriate dilution of the samples. Should lucifer yellow Papps were above QC limits in more than one well per test compound, the compound was re-tested.
The permeability coefficient for each compound (Papp) was calculated from the following equation: Papp=[dQ/dt]/[C0×A]
Whereby dQ/dt is the rate of permeation of the drug across the cells, C0 is the donor compartment concentration at time zero and A is the area of the cell monolayer. C0 is obtained from analysis of the donor compartment at the end of the incubation period.
Test compounds were grouped into low, medium or high absorption potential based on comparison with control compounds, which have known human absorption.
In addition, permeation was studied in both directions across the cells, and an asymmetry index was reported from mean A-B and B-A data. This was derived from: Papp(B-A)/Papp(A-B)
Wherein “+” means a caco A-B and caco B-A value of 1-10 and “++” means a caco A-B and caco B-A value of 11-100.

Sequence of human MEK1 (Q02750 whole entry): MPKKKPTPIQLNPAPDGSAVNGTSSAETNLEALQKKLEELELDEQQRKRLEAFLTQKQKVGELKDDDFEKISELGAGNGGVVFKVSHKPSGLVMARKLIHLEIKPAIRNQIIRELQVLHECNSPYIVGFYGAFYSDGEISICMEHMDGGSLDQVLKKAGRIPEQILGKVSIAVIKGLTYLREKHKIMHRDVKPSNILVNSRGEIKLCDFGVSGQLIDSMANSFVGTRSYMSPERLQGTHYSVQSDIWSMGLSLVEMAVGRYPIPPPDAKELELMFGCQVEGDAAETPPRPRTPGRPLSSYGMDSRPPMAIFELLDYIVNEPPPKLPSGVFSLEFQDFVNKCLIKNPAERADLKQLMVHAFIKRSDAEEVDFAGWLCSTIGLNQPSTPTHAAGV

| SMILES | half-life at 3 µM [1] | half-life at 3 µM [2] | IC50 (human MEK1) | IC50 [3] | IC50 (human melanoma cell MeI5) | IC50 (Murine colon C26 cells) | efficacy in clinical phase II trials (Tumors) | bioavailability [4] | half-life at 3 µM [5] | Caco A-B (Caco-2 cells) | Caco B-A (Caco-2 cells) |
| --- | --- | --- | --- | --- | --- | --- | --- | --- | --- | --- | --- |
| CCONC(=O)c1ccncc1Nc1ccc(Br)cc1C [Example 4, 3-[(4-Bromo-2-methylphenyl)amino]-N-ethoxyisonicotinamide] | 0.517 to 2 h | 0.517 to 2 h | < 1000 nM | ≤ 3 µM | 3000 to 10000 nM | – | – | – | – | – | – |
| CCONC(=O)c1ccncc1Nc1ccc(I)cc1C [Example 5, N-Ethoxy-3-[(4-iodo-2-methylphenyl)amino]isonicotinamide] | – | – | < 1000 nM | ≤ 3 µM | ≤ 3000 nM | 3 to 10 µM | – | – | – | – | – |
| O=C(NOCC1CC1)c1ccc(F)c(F)c1Nc1ccc(I)cc1Cl [PD-184352] | – | – | – | – | – | – | lacking efficacy | low | – | – | – |
| C=CCNc1nnc(-c2ccncc2Nc2ccc(Br)cc2C)o1 [Example 129, [4-(5-Allylamino-[1,3,4]oxadiazol-2-yl)-pyridin-3-yl]-(4-bromo-2-methyl-phenyl)-amine] | > 2 h | 0.517 to 2 h | < 1000 nM | – | – | – | – | – | > 2 h | ++ (a caco A-B and caco B-A value of 11-100) | ++ (a caco A-B and caco B-A value of 11-100) |
| Cc1cc(I)ccc1Nc1cnccc1C(=O)NOC[C@@H](O)CO [Example 124, N—((S)-2,3-Dihydroxy-propoxy)-3-(4-iodo-2-methyl-phenylamino)-isonicotinamide] | – | – | < 1000 nM | – | ≤ 3000 nM | 3 to 10 µM | – | – | – | – | – |
| Cc1cc(I)ccc1Nc1cnccc1C(=O)NOC[C@H](O)CO [Example 9, 3-[(2-methyl-4-iodophenyl)amino]-N-{[(2R)-2,3-dihydroxypropyl]oxy}-isonicotinamide] | > 2 h | > 2 h | < 1000 nM | ≤ 3 µM | – | 3 to 10 µM | – | – | > 2 h | + (a caco A-B and caco B-A value of 1-10) | ++ (a caco A-B and caco B-A value of 11-100) |
| OCCNc1nnc(-c2ccncc2Nc2ccc(Br)cc2F)o1 [Example 127, 2-{5-[3-(4-Bromo-2-fluoro-phenylamino)-pyridin-4-yl]-[1,3,4]oxadiazol-2-ylamino}-ethanol] | > 2 h | > 2 h | – | – | – | – | – | – | 0.0167 to 0.5 h | ++ (a caco A-B and caco B-A value of 11-100) | ++ (a caco A-B and caco B-A value of 11-100) |
